In PubChem BioAssay (NCI):
“And” between values parts separate entries of the source, which are not always exact repeats. Equal values may be shown once.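 Five concentrations, 48 hours, 96-well plates. At the GI50, growth is halved. The concentration for full growth arrest is given as TGI.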

tested on: MDA-MB-468 breast; test: NCI tumour cell line growth inhibition, 48 h

Question: Which results are given for `O=C(Nc1ccc(OS(=O)(=O)c2ccc(F)cc2)cc1)C12CC3CC(CC(C3)C1)C2`?
Answer: GI50: 1.33 µM; TGI: > 100 µM

Question: `C=CC(=O)N[C@@H]1CN(c2nc(Nc3cn(C)nc3OC)c3ncn(C)c3n2)C[C@H]1F` was tested. Which GI50 did it give?
Answer: 0.0256 µM

Question: And the TGI?
Answer: 0.265 µM

Question: `Clc1ccc(-c2cc(-c3ccccc3)nc(N3CCN(CCCNc4ccnc5cc(Cl)ccc45)CC3)n2)cc1` was tested. Which GI50 did it give?
Answer: 0.352 µM

Question: What about the TGI of the same molecule?
Answer: 1.61 µM

Question: What does the source list for `O=C(COc1ccc(/C=C2\Oc3ccc4ccccc4c3C2=O)cc1)c1ccc([N+](=O)[O-])cc1`?
Answer: GI50: 1.07 µM; TGI: 3.05 µM

Question: `O=CC(OC(=O)c1ccccc1)C(OC(=O)c1ccccc1)C(COC(c1ccccc1)(c1ccccc1)c1ccccc1)OC(=O)c1ccccc1` (centres undefined) was tested. Which GI50 did it give?
Answer: 11.8 µM

Question: And the TGI?
Answer: 26.9 µM

Question: How did the GI50 turn out when `COc1cc2c(Oc3ccc(NC(=O)C4(C(=O)Nc5ccc(F)cc5)CC4)cc3F)ccnc2cc1OCCCN1CCOCC1` was run?
Answer: 0.92 µM and 1.05 µM

Question: What about the TGI of the same molecule?
Answer: 2.29 µM and 3.16 µM

Question: For `CC/C=C\C[C@H]1C/C=C2/C(=O)C=C[C@H]2C/C=C\CCCC(=O)O1`, which GI50 is on record?
Answer: 1.56 µM

Question: And the TGI?
Answer: 7.95 µM

Question: What does the source list for `CN1CCN(CCCOc2cccc3nc(Nc4cc(Cl)cc(Cl)c4)ccc23)CC1`?
Answer: GI50: 1.69 µM; TGI: 3.22 µM

Question: What does the source list for `CNC(=O)c1cc(Oc2ccc3nc(NC(=O)Nc4ccc(CN5CCOCC5)c(C(F)(F)F)c4)sc3c2)ccn1`?
Answer: GI50: 1.45 µM; TGI: 4.95 µM

Question: For `C[C@@H](Nc1nc(N[C@H](C)C(F)(F)F)nc(-c2cccc(Cl)n2)n1)C(F)(F)F`, which GI50 is on record?
Answer: 41.9 µM

Question: And the TGI?
Answer: > 100 µM

Question: For `Nc1nc(N)c2c(n1)NC(c1sc(Cl)nc1Cl)CC(c1ccccc1)=N2` (centres undefined), which GI50 is on record?
Answer: 2.12 µM

Question: What about the TGI of the same molecule?
Answer: 8.48 µM

Question: Which results are given for `COc1ccccc1-n1cnc(N)c1C(=O)c1cc(OC)c(OC)c(OC)c1`?
Answer: GI50: 1.85 µM; TGI: 6.57 µM

Question: Which results are given for `CN(C)c1ccc(C(=S)c2ccc(N(C)C)cc2)cc1`?
Answer: GI50: 2.05 µM; TGI: 8.21 µM

Question: With `C[C@@H](O)[C@@H](C)Oc1nc(Nc2ccc(S(=N)(=O)C3CC3)cc2)ncc1C(F)(F)F` (some centres undefined) as the molecule, how does the GI50 read?
Answer: 0.023 µM

Question: And the TGI?
Answer: 0.0615 µM

Question: Which results are given for `O=C(NC1CCN(Cc2ccccc2)CC1)c1cc(-c2cccnc2)nc2ccc(Cl)cc12`?
Answer: GI50: 4.48 µM; TGI: 57 µM

Question: Which GI50 does the source give for `Cc1c2cnccc2c(C)c2c1c1cc(O)ccc1n2C(C)C` here?
Answer: 2.12 µM

Question: What about the TGI of the same molecule?
Answer: 4.74 µM

Question: What does the source list for `CCN(C(=O)N1CCN(c2cc3c(cc2F)c(=O)c(C(=O)O)cn3C2CC2)CC1)c1nc(-c2ccccc2)cs1`?
Answer: GI50: 2.52 µM; TGI: 8.82 µM

Question: For `COc1ccc(C(=O)/C=C/c2sc(Cl)nc2Cl)cc1`, which GI50 is on record?
Answer: 1.38 µM

Question: What about the TGI of the same molecule?
Answer: 3.51 µM

Question: How did the GI50 turn out when `Cc1nnc(C[C@@H]2C=C(c3ccc(Cl)cc3)c3ccccc3-n3c(C)nnc32)o1` was run?
Answer: 0.745 µM

Question: What about the TGI of the same molecule?
Answer: 22.8 µM

Question: How did the GI50 turn out when `COc1ccc(-c2nn(-c3cccc(Cl)c3)cc2/C=C2\NC(=S)N(c3ccc(Cl)cc3)C2=O)cc1` was run?
Answer: 3.03 µM

Question: And the TGI?
Answer: 6.89 µM

Question: `C[C@@H]1CC[C@H]2[C@@H](C)C(O)O[C@@H]3O[C@]4(C)CC[C@@H]1[C@]32OO4` (some centres undefined) was tested. Which GI50 did it give?
Answer: 3.58 µM

Question: And the TGI?
Answer: 33.2 µM

Question: Which results are given for `NC(N)=NN=c1c(=O)c2ccccc2c1=O`?
Answer: GI50: 16.4 µM; TGI: 30.7 µM

Question: `Cc1cccc2c3c(sc12)C(c1ccc(F)cc1)C(C#N)=C(/N=C/c1ccc(Cl)cc1)O3` (centres undefined) was tested. Which GI50 did it give?
Answer: 0.383 µM

Question: And the TGI?
Answer: 12.6 µM

Question: `CCOC(=O)/C(=C/CC/C(C)=C/CC/C(C)=C/CCc1ccoc1)CC(=O)N1CCCCC1` was tested. Which GI50 did it give?
Answer: 2.11 µM

Question: What about the TGI of the same molecule?
Answer: 7.26 µM

Question: With `Oc1ccc(NC(=S)Nc2ccccc2)cc1` as the molecule, how does the GI50 read?
Answer: > 100 µM

Question: And the TGI?
Answer: > 100 µM

Question: How did the GI50 turn out when `COc1ccccc1C1C2=C(COC2=O)Oc2cc3c(cc21)OCO3` (centres undefined) was run?
Answer: 5.08 µM

Question: And the TGI?
Answer: > 100 µM

Question: With `Cc1cccc2c(C3=C(c4cn(C)c5ccccc45)C(=O)NC3=O)cn(C)c12` as the molecule, how does the GI50 read?
Answer: 13.9 µM

Question: And the TGI?
Answer: > 25 µM

Question: Which GI50 does the source give for `O=C(NNc1nc2cc(F)cc(F)c2n2cccc12)c1ccncn1` here?
Answer: > 30 µM

Question: And the TGI?
Answer: > 30 µM

Question: Which GI50 does the source give for `CC(=O)N[C@H](C)[C@@H](O)[C@@H](C)[C@@H]1OC(=O)/C=C/C=C(C)\C=C\[C@]2(C)C[C@@H](NS(C)(=O)=O)C=C[C@@H]2/C=C(C)/C=C/[C@H]1C` here?
Answer: 0.00245 µM and 0.00435 µM

Question: What about the TGI of the same molecule?
Answer: 2.12 µM and 7.39 µM

Question: How did the GI50 turn out when `O=c1cc(-c2ccc(Cl)cc2)[nH]c2ccccc12` was run?
Answer: 18.6 µM

Question: What about the TGI of the same molecule?
Answer: > 100 µM

Question: What does the source list for `Cc1cc(F)c(C(=O)Nc2cccc(-c3nncn3C(C)C)n2)cc1-n1cnc(C2CC2)c1`?
Answer: GI50: 7.76 µM; TGI: 83.3 µM

Question: How did the GI50 turn out when `C1=N[C@]23C(=N[C@H](N=C2NCc2ccco2)[C@]24N=CNC2=N[C@H]3N=C4NCc2ccco2)N1` was run?
Answer: 26.6 µM

Question: What about the TGI of the same molecule?
Answer: > 100 µM
